Source: patent publication US20050187240A1, “Aaptamine and isoaaptamine and structural modifications thereof” (The Arizona Board of Regents, Acting for and on behalf of …, priority 2004, published 2005)
In brackets after ≈: the same amount, converted by molar mass. Where two headings read alike, the source gives them in different places.

How the values were obtained:
Neisseria gonorrhoeae = assay: Broth microdilution susceptibility assay, Neisseria gonorrhoeae; format: cell-based
prostrate DU-145 = assay: Cancer cell growth inhibition, prostate DU-145; format: cell-based, human; conditions: Homo sapiens; Table 3; prostrate DU-145; read-out: Cancer cell growth inhibitory ED50
Experimental: (§1) Biology The cancer cell growth inhibitory properties were examined using the murine P388 lymphocytic leukemia cell line and a selection of human cancer cell lines.
(§2) All of the synthetic products were evaluated against a minipanel of human cancer cell lines, the murine P388 lymphocytic leukemia cell line and a selection of microorganisms.

lung NCI-H460 = assay: Cancer cell growth inhibition, lung NCI-H460; format: cell-based, human; conditions: Homo sapiens, lung NCI-H460
In short: (§3)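 Growth inhibition in murine P388 leukemia and human cancer cell line panels (Arizona State University minipanel and NCI 60-cell screen).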

Streptococcus pneumoniae = assay: Broth microdilution susceptibility assay, Streptococcus pneumoniae; format: cell-based
colon KM 20L2 = assay: Cancer cell growth inhibition, colon KM 20L2; format: cell-based, human; conditions: Homo sapiens, colon KM 20L2
In short: as §3

tubulin = assay: Tubulin polymerization (assembly) inhibition; format: biochemical; conditions: b138 series; 20 minutes incubation at 30° C.; read-out: IC50 for inhibition of extent of tubulin assembly
Experimental: Only minimal inhibitory activity was observed. While compounds 15 and 8 did inhibit the rate of polymerization by over 50% at 40 μM (the highest concentration examined), an IC50 value for inhibition of assembly extent was obtained only for compound 18. […] Thus, it seems unlikely that the cytotoxic mechanism for these aaptamine analogs derives from an interaction with tubulin.
A number of the aaptamine derivatives whose synthesis is described here were examined for potential effects on tubulin assembly. These were compounds 2, 4, 5, 9a-c, and 10a-d. […] For comparison, in experiments performed contemporaneously, the potent colchicine site drug combretastatin A-4 yielded an IC50 value of about 2 μM.

ovary OVCAR-3 = assay: Cancer cell growth inhibition, ovary OVCAR-3; format: cell-based, human; conditions: Table 1
Excerpt: (§4) (Boyd, M. R., Cancer: Principles and Practices of Oncology Updates; […], et al., Eds; Lippincott: Philadelphia, 1989, Vol. 10, No. 3, pp. 1-12; Boyd, et al., Drug Development Research 1995, 34, 91-109; Boyd, M. R., et al. Cytotoxic Anticancer Drugs: Models and Concepts for Drug Discovery and Development; Valeriote, A., et al., Eds, Kluwer Academic Publishers: Amsterdam, 1992, pp. 11-34.)

melanoma SK-MEL-5 = assay: Cancer cell growth inhibition, melanoma SK-MEL-5; format: cell-based, human; conditions: Table 1
Excerpt: as §4

[1] = test system: murine P388 lymphocytic leukemia cell line; assay: Cancer cell growth inhibition, murine P388 lymphocytic leukemia cell line; format: cell-based; conditions: for IC50: Mus musculus
In short: as §3

pancreas BXPC-3 = assay: Cancer cell growth inhibition, pancreas BXPC-3; format: cell-based, human; conditions: Homo sapiens; Table 3; pancreas BXPC-3; read-out: Cancer cell growth inhibitory ED50
Experimental: as §1, §2

breast MCF-7 = assay: Cancer cell growth inhibition, breast MCF-7; format: cell-based, human; conditions: Homo sapiens, MCF7; Table 3; breast MCF-7; read-out: Cancer cell growth inhibitory ED50
Experimental: as §1, §2

[2] = Stability of the substance (observation); format: physicochemical
Excerpt: When newly isolated, isoaaptamine (2) appears as a yellow colored powder that rapidly changes to dark green and finally brown or black, presumably due to air oxidation. […] For that purpose, isoaaptamine (2) was first phosphorylated with dibenzylphosphate (Pettit, G. R. et al., Anti-Cancer Drug Design 2000, 15, 203-216; Silverberg, L. J., Tetrahedron Lett. 1996, 37, 771-774). […] Scheme 2 below illustrates the aforementioned synthesis method. [drawing 17] Biology

Enterobacter cloacae = assay: Broth microdilution susceptibility assay, Enterobacter cloacae; format: cell-based
Candida albicans = assay: Broth microdilution susceptibility assay, Candida albicans; format: cell-based
Escherichia coli = assay: Broth microdilution susceptibility assay, Escherichia coli; format: cell-based
PKC alpha = PKC alpha (Homo sapiens, UniProt P17252); assay: Inhibition of [3H]phorbol 12,13-dibutyrate binding to PKC alpha; conditions: 30 μM compound; read-out: inhibition of [3H]phorbol 12,13-dibutyrate binding to PKC alpha
Experimental: Isoaaptamine (2) and derivatives 4, 5, 7, 8, and 14-18 were evaluated as ligands for PKC, based on the initial report of activity for isoaaptamine (Patil, et al., PCT Int. Appl. WO 95/0584 March 1995). Activity was measured at 30 μM compound using inhibition of [^3H-20]phorbol 12,13-dibutyrate binding to PKC alpha as described previously (Kazanietz, M. G., et al., Molecular Pharmacol., 1993, 44, 298). Assays were carried out with triplicate measurements in either single or triplicate experiments, depending on the compound.
Compounds 4, 5, 9a-c, and 10a-d were evaluated as ligands for PKC, based on the initial report of activity for isoaaptamine. Activity was measured at 30 μM compound using inhibition of [20-^3H]phorbol 12,13-dibutyrate binding to PKC alpha as described previously (Kazanietz, M. G., et al., Characterization of Ligand and Substrate Specificity for the Calcium-Dependent and Calcium-Independent Protein Kinase C Isoenzymes, Molecular Pharmacol. 1993, 44, 298-307). Assays were carried out with triplicate measurement in either single or triplicate experiments, depending on the compound. Inhibition by 9a and 9b was 6.4% and 9.2%, respectively. That by 10a, 10b, and 10d was 11.8%, 12.6%, and 16.0%, respectively. That by other derivatives was 5% or less. We conclude that these compounds show only very weak activity as ligands for PKC.

[3] = test system: Stenotrophomonas maltophilia; assay: Broth microdilution susceptibility assay, Stenotrophomonas maltophilia; format: cell-based
CNS SF-295 = assay: Cancer cell growth inhibition, CNS SF-295; format: cell-based, human; conditions: Table 1
Excerpt: as §4

Enterococcus faecalis = assay: Broth microdilution susceptibility assay, Enterococcus faecalis; format: cell-based
Staphylococcus aureus = assay: Broth microdilution susceptibility assay, Staphylococcus aureus; format: cell-based
renal A498 = assay: Cancer cell growth inhibition, renal A498; format: cell-based, human; conditions: Table 1
Excerpt: as §4

CNS SF-268 = assay: Cancer cell growth inhibition, CNS SF-268; format: cell-based, human; conditions: Homo sapiens; Table 3; CNS SF-268; read-out: Cancer cell growth inhibitory ED50
Experimental: as §1, §2

Cryptococcus neoformans = assay: Broth microdilution susceptibility assay, Cryptococcus neoformans; format: cell-based
Micrococcus luteus = assay: Broth microdilution susceptibility assay, Micrococcus luteus; format: cell-based
[4] = test system: murine P388 lymphocytic leukemia cell line and a selection of human cancer cell lines; assay: Cancer cell growth inhibition, P388 and human cancer cell line panel (summary in words); format: cell-based
Excerpt: as §1

[5] = Table 2, read-out: Range of minimum inhibitory concentration
[6] = Table 1, read-out: Cancer Cell Line Results ED50
[7] = Table 3, read-out: Cancer cell growth inhibitory ED50
[8] = P388, Table 3, leukemia P-388, read-out: Cancer cell growth inhibitory ED50
[9] = Table 4, read-out: Range of minimum inhibitory concentration

**Q.** For `COc1cc2ccnc3c2c(c1O)N(C)C=C3` [Compound 2, isoaaptamine], which MIC (Neisseria gonorrhoeae; [5]) is on record?
**A.** < 0.5 µg/mL

**Q.** And the IC50 (prostrate DU-145)?
**A.** 3.3 µg/mL (≈ 14.5 µM)

**Q.** What about the IC50 (lung NCI-H460; [6]) of the same compound?
**A.** 2.4 µg/mL (≈ 10.5 µM)

**Q.** What about the IC50 (lung NCI-H460; [7]) of the same compound?
**A.** 2.9 µg/mL (≈ 12.7 µM)

**Q.** And the MIC (Streptococcus pneumoniae; [5])?
**A.** 8 to 32 µg/mL (≈ 35 to 140 µM)

**Q.** What about the IC50 (colon KM 20L2; [6]) of the same compound?
**A.** 2.3 µg/mL (≈ 10.1 µM)

**Q.** What about the IC50 (colon KM 20L2; [7]) of the same compound?
**A.** > 10 µg/mL

**Q.** And the IC50 (tubulin)?
**A.** 31 µM

**Q.** What about the “Cancer Cell Line Results ED50” value (ovary OVCAR-3) of the same compound?
**A.** 1.20 µg/mL

**Q.** And the “Cancer Cell Line Results ED50” value (melanoma SK-MEL-5)?
**A.** 1.60 µg/mL

**Q.** What about the IC50 [1, 8] of the same compound?
**A.** 1.6 µg/mL (≈ 7.01 µM)

**Q.** And the IC50 ([1]; Table 1, leukemia murine P388, read-out: Cancer Cell Line Results ED50)?
**A.** 0.28 µg/mL (≈ 1.23 µM)

**Q.** And the “P388 ED50” value ([1]; murine P388)?
**A.** 0.28 µg/mL

**Q.** What about the IC50 (pancreas BXPC-3) of the same compound?
**A.** 4.1 µg/mL (≈ 18 µM)

**Q.** What about the IC50 (breast MCF-7) of the same compound?
**A.** 2.2 µg/mL (≈ 9.64 µM)

**Q.** And the “stability” value [2]?
**A.** relatively unstable

**Q.** What about the “Range of minimum inhibitory concentration” value (Enterobacter cloacae; Table 2) of the same compound?
**A.** * (no inhibition at 64 ug/ml)

**Q.** What about the “Range of minimum inhibitory concentration” value (Candida albicans; Table 2) of the same compound?
**A.** * (no inhibition at 64 ug/ml)

**Q.** What about the “Range of minimum inhibitory concentration” value (Escherichia coli; Table 2) of the same compound?
**A.** * (no inhibition at 64 ug/ml)

**Q.** And the inhibition at 30 µM (PKC alpha)?
**A.** 13%

**Q.** What about the “Range of minimum inhibitory concentration” value ([3]; Table 2) of the same compound?
**A.** * (no inhibition at 64 ug/ml)

**Q.** What about the “Cancer Cell Line Results ED50” value (CNS SF-295) of the same compound?
**A.** 2.60 µg/mL

**Q.** And the MIC (Enterococcus faecalis; [5])?
**A.** 32 to 64 µg/mL (≈ 140 to 280 µM)

**Q.** What about the MIC (Staphylococcus aureus; [5]) of the same compound?
**A.** 16 to 32 µg/mL (≈ 70.1 to 140 µM)

**Q.** And the “Cancer Cell Line Results ED50” value (renal A498)?
**A.** 2.20 µg/mL

**Q.** What about the IC50 (CNS SF-268) of the same compound?
**A.** 2.2 µg/mL (≈ 9.64 µM)

**Q.** What about the MIC (Cryptococcus neoformans; [5]) of the same compound?
**A.** 64 µg/mL (≈ 280 µM)

**Q.** And the MIC (Micrococcus luteus; [5])?
**A.** 32 to 64 µg/mL (≈ 140 to 280 µM)

**Q.** With `CN1C=Cc2cc(O)c(O)c3nccc1c23` [Compound 7, 4-Methyl-8,9-dihydroxy-4H-benzo[de][1,6]naphthyridine] as the compound, how does the MIC (Neisseria gonorrhoeae; [9]) read?
**A.** 64 µg/mL (≈ 299 µM)

**Q.** What about the IC50 (prostrate DU-145) of the same compound?
**A.** > 10 µg/mL

**Q.** And the IC50 (lung NCI-H460; [7])?
**A.** > 10 µg/mL

**Q.** And the MIC (Streptococcus pneumoniae; [9])?
**A.** > 64 µg/mL

**Q.** And the IC50 (colon KM 20L2; [7])?
**A.** > 10 µg/mL

**Q.** And the IC50 [1, 8]?
**A.** 2.2 µg/mL (≈ 10.3 µM)

**Q.** And the IC50 (pancreas BXPC-3)?
**A.** > 10 µg/mL

**Q.** What about the IC50 (breast MCF-7) of the same compound?
**A.** 4.1 µg/mL (≈ 19.1 µM)

**Q.** And the MIC (Enterobacter cloacae; [9])?
**A.** > 64 µg/mL

**Q.** And the “cancer cell growth inhibitory activity” value [4]?
**A.** marginal activity

**Q.** What about the MIC (Candida albicans; [9]) of the same compound?
**A.** > 64 µg/mL

**Q.** What about the MIC (Escherichia coli; [9]) of the same compound?
**A.** > 64 µg/mL

**Q.** And the MIC ([3]; Table 4, Stenotrophomonas maltophil, read-out: Range of minimum inhibitory concentration)?
**A.** > 64 µg/mL

**Q.** What about the MIC (Enterococcus faecalis; [9]) of the same compound?
**A.** > 64 µg/mL

**Q.** And the MIC (Staphylococcus aureus; [9])?
**A.** > 64 µg/mL

**Q.** And the IC50 (CNS SF-268)?
**A.** 5.6 µg/mL (≈ 26.1 µM)

**Q.** What about the MIC (Cryptococcus neoformans; [9]) of the same compound?
**A.** > 64 µg/mL

**Q.** What about the MIC (Micrococcus luteus; [9]) of the same compound?
**A.** > 64 µg/mL
